The nature of series [1]: Dose without significant effect on water or total fluid intake. The settings on record: mouse, in vivo, ip; intraperitoneal injection at 12 hourly intervals, read from dose graph; read-out: Dose which has no significant effect on water or total fluid intake. The text has this: The dose of the choline acetylase inhibitor when administered according to the present invention is selected to cause effective aversion to alcohol consumption. Effective aversion is intended to mean either the complete lack of compulsion to consume alcohol or at least a reduction of the compulsion to a point where the subject may consume alcohol in a strictly elective manner without being dependent thereon. The dose is also selected to be substantially free of undesirable side effects. By this is meant that the side effects are at most of a trivial nature and unimportant relative to the benefit derived from the treatment. One effect of excessive dosage with a choline acetylase inhibitor is a reduction in water consumption. […]
The dose of trans-4-[2-(1-naphthyl)vinyl]pyridine hydrochloride which has no significant effect on water or total fluid intake of these animals was determined to be 2 mg./kg. This was determined by intraperitoneal injection of trans-4-[2-(1-naphthyl)vinyl]pyridine hydrochloride at 12 hourly intervals during the test period at various dosage concentrations for various groups of mice. […]

In series [2] the test system is C57B1/6J mice. The experiment in a line: Ethanol aversion in C57B1/6J mice, free choice of water and 5% ethanol. It counts as in vivo, mouse. To be noted: for 5% alcohol daily consumption: 2 mg./kg. i.p. at 12 hourly intervals; for 5% alcohol daily consumption / Water daily consumption: N = 8. The protocol: Adult male C57B1/6J mice weighing 20-25 g. were then placed into individual cages equipped with two small drinking tubes, one filled with water and the other with 5% ethanol in water. Food, water and alcohol solution were available ad libitum and the daily consumption of each was recorded at 10 a.m. The positions of the tubes were interchanged daily and different tubes were ocassionally substituted. After a period of 4 days to establish a reference base for alcohol and water consumption respectively, the animals were treated by intraperitoneal injection with 2 mg./kg. of body weight of trans-4-[2-(1-naphthyl)vinyl]-pyridine hydrochloride at 12 hourly intervals on the 5th and 6th days. Drug treatment was terminated on the 6th day and the animals were kept for an additional two days. The average values of water, 5% alcohol, and total fluid intake for each of these 8 days of the experiment are shown in the following table.

Series [3] relates to rats trained on a conditioned avoidance procedure. The settings on record: 2.0 mg./kg. intraperitoneally, 3 hr. session; cited from earlier work.
Setting [4] is: day 5, 2 mg./kg. i.p. at 12 hourly intervals.
[5] abbreviates: day 6, 2 mg./kg. i.p. at 12 hourly intervals.

For `C(=C\c1cccc2ccccc12)/c1ccncc1.Cl` [N V P, trans-4-[2-(1-naphthyl)vinyl]pyridine hydrochloride], in series [1], the NOAEL was found to be 2 mg/kg. The “Alcohol consumption as share of the daily fluid intake on the days of drug treatment” value in series [2] (5th and 6th days, 2 mg./kg. i.p., about 65% without drug) is given as “about 42%”. Besides, the “Total daily fluid intake during the experimental period” value in series [2] (8-day experiment, drug on days 5 and 6) is recorded as “remained substantially constant”. The “5% alcohol daily consumption” value came to 60 ± 2 mL/kg in series [2] (day 5 (first treatment day)) and 82 ± 3 mL/kg in series [2] (day 6 (second treatment day)). The results for the “5% alcohol as % of total daily fluid intake” value in series [2] (setting [4]) and in series [2] (setting [5]) were 34% and 43%, respectively. Moreover, the “Total daily fluid consumption” value in series [2] (setting [4]) was found to be 177 mL/kg; in series [2] (setting [5]) it was 193 mL/kg. Further, the Water daily consumption was determined as 117 ± 4 mL/kg in series [2] (setting [4]) and 111 ± 4 mL/kg in series [2] (setting [5]). For the same compound, the “Water and alcohol intakes on cessation of drug treatment” value in series [2] (days 7 and 8, after drug treatment ended) was “returned substantially to their pretreatment values”.

With `CC(N)Cc1ccccc1` (stereo not shown) [amphetamine], the “Increase in the response rate” value in series [3] is recorded as ~75%.

(Values after patent publication US4006240A, “Alcohol aversion process by enzyme inhibition” (priority 1975, dated 1977).)
